The results in this text go back to US20100267672A1, “NOVEL COMPOUNDS OF REVERSE-TURN MIMETICS, METHOD FOR MANUFACTURING THE SAME AND USE THEREOF” (Choongwae Pharma Corporation, priority 2009, published 2010).

For orientation: IC50 means the concentration needed to halve the response being measured. As usually defined, the solubility is the dissolved amount per volume that the medium holds.

Data set [1] concerns human AML cell line, MV4-11. Kind of data set: Anticancer activity in acute myeloid leukemia (AML) animal model. The data set is classed as in vivo, Balb/C nude mice. Particulars: intravenously once a day, five times per week for two weeks, MV4-11 implanted nude mice, Day 12 vs Day 1; for inhibition in vivo at 25 mg/kg: Mus musculus, iv, 288 h, read-out: Tumor growth Inhibition Rate. Here is the method: Test materials were prepared in the form of prodrugs to increase the solubility of compounds of interest. A phosphate functional group which may be either a monosodium or disodium form was introduced as a prodrug substituent.
The human AML cell line, MV4-11, was purchased (ATCC, U.S.A.) and cultured at 37° C. under a 5% CO2 condition in Iscove's Modified Dulbecco's Medium (GIBCO, cat# 21056) supplemented with 10% fetal bovine serum (GIBCO, cat# 25030-081). Female Balb/C nude mice (OrientBio, Sungnam-city, Korea), 5-6 weeks old, were acclimated to the breeding room. Using a sterilized syringe, a mixture of 1:1 of MV4-11 cells: matrigel (v/v) was implanted in an amount of 5×10^6/mouse beneath the axilla of each of the mice. When tumor was formed 2 weeks after the implantation, the mice were divided into five (5) groups in such a manner that a minimum deviation with regard to tumor size and body weight was obtained among the groups. The test materials were dissolved in physiological saline and intravenously injected at a dose of 10 ml/kg once a day and five times per week for two weeks (administration days of test materials, D1˜D5, D8˜D12). For a control, only physiological saline was used. The tumor size was determined as calculated by the following equation: Long Axis×Short Axis×Short Axis/2. The Long and Short Axes of the tumor were measured in length using a digital caliper (Mitsutoyo, Japan). The anticancer activity of the test materials was numerated according to the following equation.
Tumor growth Inhibition Rate A (%)=100×[1−(b−a)/(Ref b−Ref a)] […]
a=mean tumor size of drug-administered group on Day 1 b=mean tumor size of drug-administered group on Day 12
Ref a=mean tumor size of the control on Day 1
Ref b=mean tumor size of the control on Day 12
When the mean tumor size of the drug-administered group on Day 12 was smaller than that of just before the administration of the test materials, it is indicated as Regression (>100%).

Another data set deals with T1, hERG (Homo sapiens, UniProt Q12809).
T1 construct: expressed in transfected cells; host or cells: HEK293
T1 sequence (Q12809 whole entry): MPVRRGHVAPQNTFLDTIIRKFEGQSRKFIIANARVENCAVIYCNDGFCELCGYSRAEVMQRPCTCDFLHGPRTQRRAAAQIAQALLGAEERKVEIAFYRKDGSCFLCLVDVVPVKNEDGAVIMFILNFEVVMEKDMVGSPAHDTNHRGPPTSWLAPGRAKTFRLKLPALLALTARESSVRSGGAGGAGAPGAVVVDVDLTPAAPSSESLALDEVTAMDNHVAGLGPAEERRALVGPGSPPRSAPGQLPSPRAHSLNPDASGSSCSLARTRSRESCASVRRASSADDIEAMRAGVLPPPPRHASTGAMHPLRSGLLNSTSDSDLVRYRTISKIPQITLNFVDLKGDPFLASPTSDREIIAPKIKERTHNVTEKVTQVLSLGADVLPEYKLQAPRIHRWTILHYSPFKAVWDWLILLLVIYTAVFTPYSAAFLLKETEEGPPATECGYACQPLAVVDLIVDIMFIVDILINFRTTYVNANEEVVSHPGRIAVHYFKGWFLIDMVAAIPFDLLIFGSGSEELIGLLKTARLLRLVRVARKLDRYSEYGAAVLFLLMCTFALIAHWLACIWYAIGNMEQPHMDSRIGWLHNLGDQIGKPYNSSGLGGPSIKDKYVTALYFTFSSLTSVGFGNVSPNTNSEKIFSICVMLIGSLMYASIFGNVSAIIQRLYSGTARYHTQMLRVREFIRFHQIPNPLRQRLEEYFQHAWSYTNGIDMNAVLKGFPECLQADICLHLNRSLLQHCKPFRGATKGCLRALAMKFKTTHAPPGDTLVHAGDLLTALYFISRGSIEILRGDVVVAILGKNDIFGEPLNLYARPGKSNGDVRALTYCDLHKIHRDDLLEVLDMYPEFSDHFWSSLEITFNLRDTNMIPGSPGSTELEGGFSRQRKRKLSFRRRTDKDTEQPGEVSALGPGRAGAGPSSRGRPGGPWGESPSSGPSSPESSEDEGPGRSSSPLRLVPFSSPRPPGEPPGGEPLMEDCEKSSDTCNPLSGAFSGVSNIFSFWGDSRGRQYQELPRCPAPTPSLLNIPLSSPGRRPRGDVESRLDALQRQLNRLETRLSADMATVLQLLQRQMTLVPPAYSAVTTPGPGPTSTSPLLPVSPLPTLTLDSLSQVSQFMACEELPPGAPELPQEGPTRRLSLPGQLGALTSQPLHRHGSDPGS
As to the kind of experiment: In vitro cardiotoxicity assay: inhibitory activity against hERG (whole-cell patch clamp). It counts as cell-based. The note with it: hERG-transfected HEK293 cells, tail current of outward hERG K+ currents; read-out: Cardiotoxicity (hERG Inhibiting Activity Assay, IC50). How it is done: HEK293 was transfected with hERG (human Ether-à-go-go Related Gene) cDNA for 48 hrs using Lipofectamine 2000 (Invitrogen, USA). The transfected HEK293 cells were cultured in Modified Dulbecco's Medium (MEM, Gibco, 1 L) supplemented with 10% FBS, sodium pyruvate (10 ml), penicillin/streptomycin (10 ml) and Zeocin (100 μg/ml, Invitrogen) at 37° C. under 5% CO2. After being detached from incubation vessels by trypsinization, the HEK293 cells were placed in a chamber for patch clamp recording. A whole-cell patch clamp method was used to record hERG K+ currents in HEK293 cells using the following intra/extracellular solutions.
The membrane potential was depolarized from −80 mV to +20 mV for 1,000 ms in a whole-cell patch clamp mode and then repolarized to −40 mV for 1,000 ms, during which the tail current of outward hERG K+ currents was recorded. In this regard, the concentrations of the compounds that are required for 50% inhibition of the current were represented as IC50.
The risk of cardiotoxicity has been raised in many drugs. Some of them were withdrawn from the market because they caused a sudden death due to the cardiotoxicity thereof. The cardiotoxicity of drugs is associated with the extension of QT intervals on electrocardiograms. Particularly, most of the drugs extending QT intervals are known to inhibit IKr channels (Bernard Fermini and Anthony A. Fossa, Nature Reviews Drug Discovery, 2003, 2, 439-447). […] In this example, the risk of cardiotoxicity was evaluated using human hERG channel-expressing mammal cells, which are internationally recognized as a system (ICH guideline, S7B, Step 4, 12, May, 2005). Although pharmaceutical activity of drug should be taken into consideration, a drug is evaluated as having a low cardiotoxicity risk when IC50 thereof is 10 μM or higher. […] Having higher IC50, compound A1 was evaluated to be safer than compound A, and compounds B1, B2 and B3 than compound B.
Background: hERG is a cardiac potassium channel; its block is linked to QT prolongation.

A short description of data set [2]: Solubility of monosodium and disodium prodrug forms. The data set is classed as physicochemical. Particulars: aqueous medium; prodrug prepared by adding sodium hydroxide to P2. How it is done: The compounds were prepared in the form of prodrugs to improve the solubility thereof. Phosphate may be introduced as a possible prodrug substituent which can exist as in either monosodiumphosphate or disodiumphosphate form.
(§1) This prodrug was prepared by adding sodium hydroxide to P2, which was synthesized according to Example 9. Both monosodium and disodium forms of the prodrug show a solubility of up to 400 mg/ml. Both forms have advantageous properties as a composition for I.V. injection in that a monosodium form has pH 4.45 and a disodium form has pH of 7.62.

A short description of data set [3]: pH of monosodium and disodium prodrug forms. It counts as physicochemical. Particulars: prodrug form as a composition for I.V. injection. How it is done: as §1
In the graph, the horizontal axis represents the added amounts of sodium hydroxide. In the graph, the first and second points of inflection correspond to the time of production of monosodium and disodium forms, respectively.

Take `C=CCN1CC(=O)N2[C@@H](Cc3ccc(OP(=O)(O)O)cc3)C(=O)N(Cc3cccc4c(C(=O)CC(C)(C)C)cn(C)c34)C[C@@H]2N1C(=O)NCc1ccccc1` [Compound B2]: in data set [1] (dose 25 mg/kg), the inhibition in vivo at 25 mg/kg is more than 100%. Further, the IC50 on hERG turned out to be 25 µM.

On to `C=CCN1CC(=O)N2[C@@H](Cc3ccc(OP(=O)(O)O)cc3)C(=O)N(Cc3cccc4c(C(C)=O)cn(C)c34)C[C@@H]2N1C(=O)NCc1ccccc1` [Compound A2], for which, in data set [1] (dose 25 mg/kg), the inhibition in vivo at 25 mg/kg was more than 100%. As to `C=CCN1CC(=O)N2[C@@H](Cc3ccc(OP(=O)(O)O)cc3)C(=O)N(Cc3cccc4c(C(C)=O)c[nH]c34)C[C@@H]2N1C(=O)NCc1ccccc1` [Compound A], the inhibition in vivo at 25 mg/kg in data set [1] (dose 25 mg/kg) came out at 61%. On hERG, the IC50 came to 14 µM. Take `C=CCN1CC(=O)N2[C@@H](Cc3ccc(OP(=O)(O)O)cc3)C(=O)N(Cc3cccc4c(C(=O)C5CC5)cn(C)c34)C[C@@H]2N1C(=O)NCc1ccccc1` [Compound C1]: the inhibition in vivo at 25 mg/kg in data set [1] (dose 25 mg/kg) is more than 100%. For the compound `C=CCN1CC(=O)N2[C@@H](Cc3ccc(OP(=O)(O)O)cc3)C(=O)N(Cc3cccc4c(C(=O)C5CC5)cn(CC)c34)C[C@@H]2N1C(=O)NCc1ccccc1` [Compound C2], in data set [1] (dose 25 mg/kg), the inhibition in vivo at 25 mg/kg was more than 100%. As to `Nc1ccn([C@@H]2O[C@H](CO)[C@@H](O)[C@@H]2O)c(=O)n1` [Ara-C, reference compound], the “Tumor growth Inhibition Rate” value was 66% in data set [1] (dose 25 mg/kg, 25 mg/kg) and 77% in data set [1] (dose 50 mg/kg). Turning to `C=CCN1CC(=O)N2[C@@H](Cc3ccc(OP(=O)(O)O)cc3)C(=O)N(Cc3cccc4c(C(=O)CC(C)(C)C)c[nH]c34)C[C@@H]2N1C(=O)NCc1ccccc1` [Compound B], the inhibition in vivo at 25 mg/kg in data set [1] (dose 25 mg/kg) was 49%. Further, the concentration for half-maximal inhibition (IC50) at hERG was 1.6 µM. Regarding `C=CCN1CC(=O)N2[C@@H](Cc3ccc(OP(=O)(O)O)cc3)C(=O)N(Cc3cccc4c(C(=O)CC)cn(C)c34)C[C@@H]2N1C(=O)NCc1ccccc1` [Compound A1], in data set [1] (dose 25 mg/kg), the inhibition in vivo at 25 mg/kg was more than 100%. Besides, on hERG, the concentration for half-maximal inhibition (IC50) was determined as 80 µM. On to `C=CCN1CC(=O)N2[C@@H](Cc3ccc(OP(=O)([O-])O)cc3)C(=O)N(Cc3cccc4c(C(C)=O)cn(C)c34)C[C@@H]2N1C(=O)NCc1ccccc1.[Na+]` [monosodium form, Sodium 4-(((6S,9AS)-1-(benzylcarbamoyl)-8-((3-acetyl-1-methyl-1H-indol-7-yl)methyl)-2-allyl-octahydro-4,7-dioxo-1H-pyrazino[2,1-C][1,2,4]triazin-6-yl)methyl)phenyl hydrogenphosphate], for which the solubility in data set [2] was not above 400 mg/mL. Moreover, the pH in data set [3] turned out to be 4.45. As to `C=CCN1CC(=O)N2[C@@H](Cc3ccc(OP(=O)(O)O)cc3)C(=O)N(Cc3cccc4c(C(=O)C5CC5)c[nH]c34)C[C@@H]2N1C(=O)NCc1ccccc1` [Compound C], in data set [1] (dose 25 mg/kg), the inhibition in vivo at 25 mg/kg came out at 25%. Take `C=CCN1CC(=O)N2[C@@H](Cc3ccc(OP(=O)(O)O)cc3)C(=O)N(Cc3cccc4c(C(=O)C5CC5)cn(CCCC)c34)C[C@@H]2N1C(=O)NCc1ccccc1` [Compound C3]: the inhibition in vivo at 25 mg/kg in data set [1] (dose 25 mg/kg) was 70%. As to `C=CCN1CC(=O)N2[C@@H](Cc3ccc(OP(=O)(O)O)cc3)C(=O)N(Cc3cccc4c(C(=O)CC(C)(C)C)cn(CCC)c34)C[C@@H]2N1C(=O)NCc1ccccc1` [Compound B1], the inhibition in vivo at 25 mg/kg in data set [1] (dose 25 mg/kg) was more than 100%. Moreover, the half-maximal inhibitory concentration (IC50) on hERG is 18 µM. Consider `C=CCN1CC(=O)N2[C@@H](Cc3ccc(OP(=O)(O)O)cc3)C(=O)N(Cc3cccc4c(C(C)=O)cn(CCC)c34)C[C@@H]2N1C(=O)NCc1ccccc1` [Compound A3], for which the inhibition in vivo at 25 mg/kg in data set [1] (dose 25 mg/kg) was more than 100%. Turning to `C=CCN1CC(=O)N2[C@@H](Cc3ccc(OP(=O)(O)O)cc3)C(=O)N(Cc3cccc4c(C(=O)CC(C)(C)C)cn(CCCCCC)c34)C[C@@H]2N1C(=O)NCc1ccccc1` [Compound B3], the inhibition in vivo at 25 mg/kg in data set [1] (dose 25 mg/kg) came to 80%. The IC50 at hERG turned out to be 20 µM. For `C=CCN1CC(=O)N2[C@@H](Cc3ccc(OP(=O)([O-])[O-])cc3)C(=O)N(Cc3cccc4c(C(C)=O)cn(C)c34)C[C@@H]2N1C(=O)NCc1ccccc1.[Na+].[Na+]` [disodium form], the solubility in data set [2] was not above 400 mg/mL. Further, the pH in data set [3] was 7.62.
